{
  "source": "paper PMC1810525",
  "about": "“Antagonism of the prostaglandin D2 receptor CRTH2 attenuates asthma pathology in mouse eosinophilic airway inflammation” (Respiratory Research, 2007)",
  "key": {"CXCR2": {"target": "T1, CXCR2 (Homo sapiens, UniProt P25025)", "T1 sequence (P25025 1-360)": "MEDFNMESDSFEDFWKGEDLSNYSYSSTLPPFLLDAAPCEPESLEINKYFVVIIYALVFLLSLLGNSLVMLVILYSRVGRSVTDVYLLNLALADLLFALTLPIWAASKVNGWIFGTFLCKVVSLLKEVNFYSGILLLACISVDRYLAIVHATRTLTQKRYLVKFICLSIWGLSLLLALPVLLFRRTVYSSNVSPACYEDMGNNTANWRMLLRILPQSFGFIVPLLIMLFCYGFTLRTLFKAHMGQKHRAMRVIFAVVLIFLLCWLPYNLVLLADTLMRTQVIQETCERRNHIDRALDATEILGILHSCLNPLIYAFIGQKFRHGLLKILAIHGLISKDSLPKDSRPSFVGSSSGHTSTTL", "assay": "Profiling panel, radioligand binding CXCR2", "conditions": "10 μM", "quoted_text": "(§2) All assays were performed using recombinant human receptors and enzymes, and included the appropriate controls for assay validation. Enzymatic and binding assays, except for muscarinic binding, were performed by CEREP in vitro pharmacology profiling services. […] For stimulation of C3a, C5a, and ChemR23 receptors in InsP assays the following agonists were used: human recombinant C3a (C3a receptor), human recombinant C5a (C5a receptor), and the nonapeptide Chemerin (ChemR23)."}, "C3a": {"target": "T2, C3a (Homo sapiens, UniProt Q16581)", "T2 sequence (Q16581 1-482)": "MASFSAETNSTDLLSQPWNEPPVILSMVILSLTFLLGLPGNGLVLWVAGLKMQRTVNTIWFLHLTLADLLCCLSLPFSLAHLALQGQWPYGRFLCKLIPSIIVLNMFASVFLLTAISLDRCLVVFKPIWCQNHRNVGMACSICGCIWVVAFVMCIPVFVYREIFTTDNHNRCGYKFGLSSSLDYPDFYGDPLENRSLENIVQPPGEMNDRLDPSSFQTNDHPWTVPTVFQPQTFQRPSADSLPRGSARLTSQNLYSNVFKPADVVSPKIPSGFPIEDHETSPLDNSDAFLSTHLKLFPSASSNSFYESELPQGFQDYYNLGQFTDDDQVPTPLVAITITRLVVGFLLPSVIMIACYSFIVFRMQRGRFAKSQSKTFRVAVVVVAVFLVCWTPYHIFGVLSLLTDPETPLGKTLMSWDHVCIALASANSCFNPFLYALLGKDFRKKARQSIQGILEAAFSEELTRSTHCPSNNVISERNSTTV", "assay": "Profiling panel, functional InsP C3a receptor", "format": "cell-based", "conditions": "10 μM"}, "[1]": {"target": "Muscarinic (M2-selective) (Sus scrofa, UniProt P06199)", "sequence (P06199 whole entry)": "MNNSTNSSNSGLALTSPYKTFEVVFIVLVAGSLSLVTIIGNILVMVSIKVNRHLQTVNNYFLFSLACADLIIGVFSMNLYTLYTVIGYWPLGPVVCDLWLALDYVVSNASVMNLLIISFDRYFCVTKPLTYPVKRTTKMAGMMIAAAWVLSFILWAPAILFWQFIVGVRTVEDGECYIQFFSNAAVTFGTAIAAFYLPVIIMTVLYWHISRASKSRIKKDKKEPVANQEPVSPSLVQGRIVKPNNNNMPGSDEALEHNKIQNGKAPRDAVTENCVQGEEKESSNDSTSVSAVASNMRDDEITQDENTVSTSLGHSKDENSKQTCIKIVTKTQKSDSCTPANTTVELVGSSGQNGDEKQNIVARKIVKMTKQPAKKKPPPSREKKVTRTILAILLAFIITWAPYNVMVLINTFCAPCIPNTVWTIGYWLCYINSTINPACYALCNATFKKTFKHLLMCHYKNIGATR", "conditions": "10 μM, binding, porcine heart membranes", "procedure": "(§1) TM30089 was tested at a final concentration of 10 μM in either binding or functional assays on several 7TM receptors, and in enzymatic assays on selected enzymes including those involved in arachidonic acid metabolism. All assays were performed using recombinant human receptors and enzymes, and included the appropriate controls for assay validation. Enzymatic and binding assays, except for muscarinic binding, were performed by CEREP in vitro pharmacology profiling services. Full description of methods and references is available on the CEREP Web site. […] Functional assays were performed using recombinant human receptors and enzymes, and included the appropriate controls for C3a, C5a, ChemR23 receptors by determining the inhibitory potency of TM30089 in InsP assays essentially as described above. For stimulation of C3a, C5a, and ChemR23 receptors in InsP assays the following agonists were used: human recombinant C3a (C3a receptor), human recombinant C5a (C5a receptor), and the nonapeptide Chemerin (ChemR23)."}, "[2]": {"tested_on": "Muscarinic (non-selective)", "conditions": "10 μM, binding, mouse brain homogenate", "procedure": "as §1"}, "Phospholipase A2": {"tested_on": "Phospholipase A2", "conditions": "10 μM, enzymatic", "procedure": "as §1"}, "AT2": {"target": "T3, AT2 (Homo sapiens, UniProt P50052)", "T3 sequence (P50052 1-363)": "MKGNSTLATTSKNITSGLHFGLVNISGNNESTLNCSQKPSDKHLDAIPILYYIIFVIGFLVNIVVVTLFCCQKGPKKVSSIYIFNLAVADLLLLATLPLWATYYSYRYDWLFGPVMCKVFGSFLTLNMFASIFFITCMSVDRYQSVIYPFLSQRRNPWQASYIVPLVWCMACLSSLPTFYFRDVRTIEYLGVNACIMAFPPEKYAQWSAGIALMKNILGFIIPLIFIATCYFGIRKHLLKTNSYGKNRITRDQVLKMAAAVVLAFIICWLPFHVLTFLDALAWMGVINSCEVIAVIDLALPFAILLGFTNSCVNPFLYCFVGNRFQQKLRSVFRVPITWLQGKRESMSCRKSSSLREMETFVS", "assay": "Profiling panel, radioligand binding AT2", "conditions": "10 μM", "quoted_text": "as §2"}, "COX2": {"target": "T4, COX2 (Homo sapiens, UniProt P35354)", "T4 sequence (P35354 18-604)": "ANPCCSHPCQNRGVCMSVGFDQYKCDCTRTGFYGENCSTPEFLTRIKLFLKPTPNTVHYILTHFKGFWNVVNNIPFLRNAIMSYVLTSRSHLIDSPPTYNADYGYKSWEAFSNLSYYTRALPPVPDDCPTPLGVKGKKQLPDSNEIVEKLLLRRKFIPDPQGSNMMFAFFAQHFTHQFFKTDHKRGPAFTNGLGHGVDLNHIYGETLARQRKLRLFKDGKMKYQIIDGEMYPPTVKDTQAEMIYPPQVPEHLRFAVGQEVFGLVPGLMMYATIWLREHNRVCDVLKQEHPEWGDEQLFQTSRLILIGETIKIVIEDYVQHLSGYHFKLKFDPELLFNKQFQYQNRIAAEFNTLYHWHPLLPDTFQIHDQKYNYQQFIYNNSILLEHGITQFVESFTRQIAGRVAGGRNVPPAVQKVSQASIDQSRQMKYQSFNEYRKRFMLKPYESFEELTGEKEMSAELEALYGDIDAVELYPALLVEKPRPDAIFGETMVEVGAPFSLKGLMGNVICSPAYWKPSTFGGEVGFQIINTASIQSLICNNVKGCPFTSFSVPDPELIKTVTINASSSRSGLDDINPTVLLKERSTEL", "assay": "Profiling panel, enzymatic assay COX2", "format": "biochemical", "conditions": "10 μM", "quoted_text": "as §2"}, "ChemR23": {"target": "T5, ChemR23 (Homo sapiens, UniProt Q99788)", "T5 sequence (Q99788 1-373)": "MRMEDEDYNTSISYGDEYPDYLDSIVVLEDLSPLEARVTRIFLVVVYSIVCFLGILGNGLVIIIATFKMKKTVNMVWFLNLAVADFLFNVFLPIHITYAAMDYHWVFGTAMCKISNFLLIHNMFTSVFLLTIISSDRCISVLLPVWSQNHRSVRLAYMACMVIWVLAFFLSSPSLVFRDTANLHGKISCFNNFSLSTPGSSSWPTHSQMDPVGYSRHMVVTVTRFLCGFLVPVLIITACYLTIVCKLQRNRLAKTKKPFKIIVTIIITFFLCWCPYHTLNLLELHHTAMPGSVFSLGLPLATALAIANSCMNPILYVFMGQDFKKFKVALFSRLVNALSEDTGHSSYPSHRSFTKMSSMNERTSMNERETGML", "assay": "Profiling panel, functional InsP ChemR23", "format": "cell-based", "conditions": "10 μM"}, "iNOS": {"target": "iNOS (Homo sapiens, UniProt P35228)", "assay": "Profiling panel, enzymatic assay iNOS", "format": "biochemical", "conditions": "10 μM", "quoted_text": "as §2"}, "COX1": {"target": "COX1 (Homo sapiens, UniProt P23219)", "sequence (P23219 24-599)": "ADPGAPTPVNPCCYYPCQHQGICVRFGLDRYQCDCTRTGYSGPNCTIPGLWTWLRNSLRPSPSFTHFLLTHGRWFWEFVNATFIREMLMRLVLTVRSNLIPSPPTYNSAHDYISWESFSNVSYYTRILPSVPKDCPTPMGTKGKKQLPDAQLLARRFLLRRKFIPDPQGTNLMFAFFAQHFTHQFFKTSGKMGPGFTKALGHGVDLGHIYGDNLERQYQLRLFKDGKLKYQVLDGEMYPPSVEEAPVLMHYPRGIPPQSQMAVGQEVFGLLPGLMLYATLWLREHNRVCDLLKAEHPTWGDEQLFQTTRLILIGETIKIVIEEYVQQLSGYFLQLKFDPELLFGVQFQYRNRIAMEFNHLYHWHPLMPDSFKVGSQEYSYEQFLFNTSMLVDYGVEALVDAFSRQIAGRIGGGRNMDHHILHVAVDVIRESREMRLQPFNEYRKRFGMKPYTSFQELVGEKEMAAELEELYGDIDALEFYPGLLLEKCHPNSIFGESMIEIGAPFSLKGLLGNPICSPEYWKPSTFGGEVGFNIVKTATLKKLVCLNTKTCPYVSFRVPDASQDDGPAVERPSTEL", "assay": "Profiling panel, enzymatic assay COX1", "format": "biochemical", "conditions": "10 μM", "quoted_text": "as §2"}},
  "data": [
    {"smiles": "CN(C1CCc2c(c3ccccc3n2CC(=O)O)C1)S(=O)(=O)c1ccc(F)cc1", "note": "(stereo not shown) [TM30089]", "values": [
      {"measurement": "% of control CXCR2", "setting": "CXCR2", "result": "104.6 ± 6.1", "unit": "%"},
      {"measurement": "% of control C3a", "setting": "C3a", "result": "88.7 ± 5.9", "unit": "%"},
      {"measurement": "% of control Muscarinic (M2-selective)", "setting": "[1]", "result": "97.5 ± 1.9", "unit": "%"},
      {"measurement": "% of control Muscarinic (non-selective)", "setting": "[2]", "result": "106.7 ± 8.5", "unit": "%"},
      {"measurement": "% of control Phospholipase A2", "setting": "Phospholipase A2", "result": "101.5 ± 1.0", "unit": "%"},
      {"measurement": "% of control AT2", "setting": "AT2", "result": "98.1 ± 1.4", "unit": "%"},
      {"measurement": "% of control COX2", "setting": "COX2", "result": "123.8 ± 13.4", "unit": "%"},
      {"measurement": "% of control ChemR23", "setting": "ChemR23", "result": "96.6 ± 1.6", "unit": "%"},
      {"measurement": "% of control iNOS", "setting": "iNOS", "result": "102.3 ± 3.6", "unit": "%"},
      {"measurement": "% of control COX1", "setting": "COX1", "result": "109.6 ± 3.6", "unit": "%"}
    ]}
  ]
}
